{"source": "patent US5321022A", "about": "“Compositions for percutaneous administration” (Kanebo, Ltd., priority 1989, dated 1994)", "origin": "cited, not measured here", "details": "cf: U.S. Pat. No. 4430343"}
{"smiles": "CCOCCn1c(N2CCCN(C)CC2)nc2ccccc21", "note": "[emedastine, 1-(2-Ethoxyethyl)-2-(hexahydro-4-methyl-1H-1,4-diazepin-1-yl)-1H-benzimidazole]", "values": [{"measurement": "antihistaminic activity (in words)", "result": "strong antihistaminic activity"}]}
